What was measured:
[1] = system: Aphanomyces euteiches; assay: Potted plant trial, field pea, 2× rate of Aphanomyces infection (Example 2); settings: ipconazole 2.5, carboxin 66.7, metalaxyl 6.7 g ai/100 kg, combination 500 ml/100 kg; for Root rot damage: 29 DAP
Description: The control consisted of seed inoculated with Aphanomyces and used water as the seed treatment. The experiment was performed in a controlled environment growth cabinet.
Culture: A 3-day old culture of Aphanomyces euteiches (3 days is when growth has fully encompassed plate) was used for 5 mm inoculation plug source (each plate received one 5 mm plug and four seeds)×4 reps.
Experimental design: 4 reps of each treatment (including controls), with each replication represented by 5 planted seeds for a total of 20 seeds per treatment were performed. All treatments received inoculum. Each seed is placed in a solitary location of a plant tray/flat that has 50 plugs per flat. One flat contained 2 treatments, separated by 10 plugs (2 rows of 5). Treatments 1 and 6 (controls) shared the same flat. The plug flats were placed in a collection tray that was not perforated and all watering was done with tap water from bottom up.
Culture media: 3 day old cultures of A. euteiches were grown on CYP (corn meal agar+yeast extract+phosphate buffer), amended with wheat leaf sections were transferred to 100 ml sterile distilled water in 250 ml flasks and shaken at 100 rpm in the dark at 23° C. for 18 hours for zoospore production.
Inducing Aphanomyces infection: Zoospores were counted and adjusted to a concentration of 1×10^4 spores, and 5 mls of this suspension was pipetted to the base of each plant on 4 DAP and again on 11 DAP (days after planting). This amounted to 50000 zoospores applied to the base of each plant at each inoculation timing. This was called 2× rate. The experiment was conducted in a growth cabinet at 23° C./22° C., 16 hrs light/8 hours dak.-root washing/rating of root darkening took place at 29 DAP which was 18 days after the second inoculation event or 25 days after the first inoculation event.

[2] = system: Mycosphaerella pinodes and Ascochyta pinodella; assay: Potted plant trial, pea, stem damage from seed borne root rot / ascochyta blight; settings: ipconazole 2.5, carboxin 66.7, metalaxyl 6.7 g ai/100 kg, combination 500 ml/100 kg

CC(C)C1CCC(Cc2ccc(Cl)cc2)C1(O)Cn1cncn1 (stereo not shown) [Ipconazole]
Root rot damage [1]: 2.2 a 0-5 index/scale
Plant height (cm) [1]: 12.3 cm
Seed emergence (%) [1]: 85.0%

COCC(=O)N(c1c(C)cccc1C)C(C)C(=O)OC (stereo not shown) [Metalaxyl]
Root rot damage [1]: 0.7 bc 0-5 index/scale
Plant height (cm) [1]: 12.2 cm
Seed emergence (%) [1]: 80.0%

CC1=C(C(=O)Nc2ccccc2)SCCO1 [Carboxin]
Stem damage [2]: 1.8 a 0-3 index/scale
Root rot damage [1]: 0.6 bc 0-5 index/scale
Plant height (cm) [1]: 12.9 cm
Seed emergence (%) [1]: 80.0%

Source: patent publication US12628826B2, “Fungicidal composition” (UPL Corporation Limited, priority 2020, dated 2026)
